Source: ChEMBL document CHEMBL5375947, “Discovery of Efficient Hypoxia-Targeted NO Donor Compounds to Alleviate Hypoxia Cardiac Disease” (J Med Chem, 2023)
Active and inactive are the calls of the source. No cut-off for these calls is given here.

Tests used:
[1] = test system: H9c2; assay: Induction of NO release in rat H9c2 cells at 10 uM under normoxia condition by griess reagent based assay; format: functional
[2] = test system: H9c2; assay: Induction of NO release in rat H9c2 cells at 10 uM under hypoxia condition by griess reagent based assay; format: functional
[3] = test system: H9c2; assay: Induction of NO release in rat H9c2 cells at 5 to 10 uM under hypoxia condition by griess reagent based assay; format: functional, cell-based; conditions: dose 5-10 µM
[4] = test system: H9c2; assay: Induction of NO release in rat H9c2 cells at 5 to 15 uM under hypoxia condition by griess reagent based assay; format: functional, cell-based; conditions: dose 5-15 µM
[5] = test system: H9c2; assay: Induction of NO release in rat H9c2 cells at 10 uM under hypoxia condition by DAF-FM fluorescence probe based spectroscopic assay; format: functional, cell-based
[6] = test system: H9c2; assay: Induction of NO release in rat H9c2 cells at 10 uM measured upto 12 hrs under hypoxia condition by griess reagent based assay; format: functional, cell-based
[7] = test system: H9c2; assay: Induction of NO release in rat H9c2 cells at 10 uM measured at 4 hrs under normoxia condition by griess reagent based assay; format: functional
[8] = test system: H9c2; assay: Induction of NO release in rat H9c2 cells at 10 uM measured at 4 hrs under hypoxia condition by griess reagent based assay; format: functional, cell-based
[9] = test system: H9c2; assay: Induction of NO release in rat H9c2 cells at 10 uM measured at 30 mins under hypoxia condition by griess reagent based assay; format: functional; conditions: 0.5 h
[10] = test system: H9c2; assay: Cytotoxicity against rat H9c2 cells assessed as reduction in cell viability at 0.01 to 10 uM under normoxia condition by CCK-8 assay; format: toxicity, cell-based; conditions: h9c2, 10 µM, dose 0.01-10 µM
[11] = test system: H9c2; assay: Recovery of myocardial cell viability in rat H9c2 cells at 0.01 to 10 uM under hypoxia condition by CCK-8 assay; format: functional, cell-based; conditions: dose 0.01-10 µM
[12] = test system: H9c2; assay: Recovery of myocardial cell viability in rat H9c2 cells assessed as increase in ATP level at 10 micromol/L measured per mg of protein under hypoxia condition by fluorescence based assay; format: functional; conditions: dose 10 µmol/L
[13] = Toxicity in C57 mouse assessed as increase in body weight at 4 mg/kg, ip administered twice a day for 3 days; format: organism-based; conditions: in vivo, 72 h, time 3 day
[14] = test system: H9c2; assay: Anti-apoptotic activity in rat H9c2 cells assessed as late apoptotic cells by measuring red fluorescence intensity by annexin V-FITC/PI staining based confocal microscopic analysis; format: functional, cell-based
[15] = test system: H9c2; assay: Downregulation of ACE expression in rat H9c2 cells at 5 to 10 uM by Western blot analysis; format: functional, cell-based; conditions: dose 5-10 µM
[16] = test system: H9c2; assay: Upregulation of TSC2-p expression in rat H9c2 cells at 5 to 10 uM by Western blot analysis; format: functional, cell-based; conditions: dose 5-10 µM
[17] = test system: H9c2; assay: Effect on ACE expression in rat H9c2 cells at 1 uM by Western blot analysis; format: functional, cell-based
[18] = test system: H9c2; assay: Effect on TSP1 expression in rat H9c2 cells at 10 uM by Western blot analysis; format: functional, cell-based
[19] = test system: H9c2; assay: Effect on TSC2-p expression in rat H9c2 cells by Western blot analysis; format: functional, cell-based; conditions: dose 0.01-1 µM
[20] = Toxicity in C57 mouse assessed as increase in cardiac swelling at 12 mg/kg, ip administered twice a day for 3 days; format: organism-based; conditions: in vivo, 72 h, time 3 day
[21] = Toxicity in C57 mouse assessed as reduction in heart weight at low dose administered twice a day for 3 days (reference value: 0.56g); conditions: in vivo, 72 h, time 3 day
[22] = Toxicity in C57 mouse assessed as reduction in heart weight at high dose administered twice a day for 3 days (reference value: 0.56g); conditions: in vivo, 72 h, time 3 day
[23] = test system: Mus musculus; assay: Induction of NO release in C57 mouse at 4 to 12 mg/kg, ip administered twice a day for 3 days; format: functional, organism-based; conditions: dose 4-12 mg/kg, time 3.0 day
[24] = test system: Mus musculus; assay: Protection against hypoxia-induced myocardial injury ip dosed C57 mouse model assessed as cellular arrangement disorder at low dose administered twice a day for 2 days by H and E staining based analysis; format: functional, organism-based; conditions: time 2.0 day
[25] = test system: Mus musculus; assay: Protection against hypoxia-induced myocardial injury ip dosed C57 mouse model assessed as cellular arrangement disorder at high dose administered twice a day for 2 days by H and E staining based analysis; format: functional, organism-based; conditions: time 2.0 day
[26] = test system: Mus musculus; assay: Vasodilation activity against hypoxia-induced myocardial injury ip dosed C57 mouse model assessed as vascular obstruction areas low dose administered twice a day for 3 days; format: functional, organism-based; conditions: time 3.0 day
[27] = test system: Mus musculus; assay: Vasodilation activity against hypoxia-induced myocardial injury ip dosed C57 mouse model assessed as vascular obstruction areas high dose administered twice a day for 3 days; format: functional, organism-based; conditions: time 3.0 day
[28] = test system: Mus musculus; assay: Protection against hypoxia-induced myocardial injury ip dosed C57 mouse model assessed as collagen fiber proliferation at low dose administered twice a day for 3 days by masson staining based analysis; format: functional, organism-based; conditions: time 3.0 day
[29] = test system: Mus musculus; assay: Protection against hypoxia-induced myocardial injury ip dosed C57 mouse model assessed as downregulation of ACE expression in heart at low dose administered twice a day for 3 days by immunohistochemistry analysis; format: functional, organism-based; conditions: time 3.0 day
[30] = test system: Mus musculus; assay: Protection against hypoxia-induced myocardial injury ip dosed C57 mouse model assessed as downregulation of ACE expression in heart at high dose administered twice a day for 3 days by immunohistochemistry analysis; format: functional, organism-based; conditions: time 3.0 day
[31] = test system: Mus musculus; assay: Protection against hypoxia-induced myocardial injury ip dosed C57 mouse model assessed as downregulation of mTORC1 expression in heart at low dose administered twice a day for 3 days by immunohistochemistry analysis; format: functional, organism-based; conditions: time 3.0 day
[32] = test system: Mus musculus; assay: Protection against hypoxia-induced myocardial injury ip dosed C57 mouse model assessed as downregulation of mTORC1 expression in heart at high dose administered twice a day for 3 days by immunohistochemistry analysis; format: functional, organism-based; conditions: time 3.0 day
[33] = Toxicity in C57 mouse assessed as increase in body weight at 4 to 12 mg/kg IG administered twice a day for 3 days; format: organism-based; conditions: in vivo, po, 72 h, dose 4-12 mg/kg, time 3 day
[34] = Toxicity in C57 mouse assessed as ratio of heart weight to body weight at 4 to 12 mg/kg IG administered twice a day for 3 days; format: organism-based; conditions: in vivo, po, 72 h, dose 4-12 mg/kg, time 3 day
[35] = test system: Mus musculus; assay: Protection against hypoxia-induced myocardial injury IG dosed C57 mouse model assessed as collagen fiber proliferation at low dose administered twice a day for 3 days by masson staining based analysis; format: functional, organism-based; conditions: time 3.0 day
[36] = test system: Mus musculus; assay: Protection against hypoxia-induced myocardial injury C57 mouse model assessed as reduction in collagen fiber proliferation at 12 mg/kg, IG administered twice a day for 3 days by masson staining based analysis; format: functional, organism-based; conditions: time 3.0 day
[37] = test system: Mus musculus; assay: Protection against hypoxia-induced myocardial injury C57 mouse model assessed as downregulation of ACE expression in heart at 12 mg/kg, IG administered twice a day for 3 days by immunohistochemistry analysis; format: functional, organism-based; conditions: time 3.0 day
[38] = Stability of compound in PBS at pH 7.4 by HPLC analysis; format: physicochemical; conditions: buffer
[39] = test system: H9c2; assay: Recovery of myocardial cell viability in rat H9c2 cells under hypoxia condition by CCK-8 assay; format: functional, cell-based; conditions: dose 10.0 µM
[40] = test system: H9c2; assay: Recovery of myocardial cell viability in rat H9c2 cells at 0.01 to 1 uM under hypoxia condition by CCK-8 assay; format: functional, cell-based; conditions: dose 0.01-1 µM
[41] = test system: H9c2; assay: Downregulation of ACE expression in rat H9c2 cells at 5 uM by Western blot analysis; format: functional, cell-based
[42] = test system: H9c2; assay: Downregulation of mTORC1 expression in rat H9c2 cells at 5 to 10 uM by Western blot analysis; format: functional, cell-based; conditions: dose 5-10 µM
[43] = test system: H9c2; assay: Downregulation of mTORC1 expression in rat H9c2 cells at 5 uM by Western blot analysis; format: functional, cell-based
[44] = Toxicity in C57 mouse assessed as increase in cardiac swelling at 4 mg/kg, ip administered twice a day for 3 days; format: organism-based; conditions: in vivo, 72 h, time 3 day
[45] = test system: H9c2; assay: Induction of NO release in rat H9c2 cells under hypoxia condition by griess reagent based assay; format: functional, cell-based; conditions: dose <= 15.0 µM
[46] = Toxicity in C57 mouse assessed as reduction in heart weight at 12 mg/kg, ip administered twice a day for 3 days (reference value: 0.56g); format: organism-based; conditions: in vivo, 72 h, time 3 day
[47] = test system: Mus musculus; assay: Induction of NO release in C57 mouse at 4 mg/kg, ip administered twice a day for 3 days; format: functional; conditions: time 3 day
[48] = test system: Mus musculus; assay: Protection against hypoxia-induced myocardial injury C57 mouse model assessed as cellular arrangement disorder at 12 mg/kg, ip administered twice a day for 2 days by H and E staining based analysis; format: functional, organism-based; conditions: time 2.0 day
[49] = test system: Mus musculus; assay: Vasodilation activity against hypoxia-induced myocardial injury C57 mouse model assessed as vascular obstruction areas at 12 mg/kg, ip administered twice a day for 3 days; format: functional, organism-based; conditions: time 3.0 day
[50] = Toxicity in C57 mouse assessed as ratio of heart weight to body weight at 4 mg/kg IG administered twice a day for 3 days; format: organism-based; conditions: in vivo, po, 72 h, time 3 day

Cc1cc([N+](=O)[O-])ccc1COC(=O)Oc1ccc(N(C)N=O)cc1
Activity [1]: <2% | Activity [2]: 43.21% | Activity [3]: Active | Activity [4]: Active | Activity [5]: Active | Activity [6]: Active | Activity [7]: 0% | Activity [8]: Active | Activity [9]: 28% | Activity [10]: Non-Toxic | Activity [11]: Active | Activity [12]: 44 nmol | Activity [13]: Non-Toxic | Activity [14]: Active | Activity [15]: Active | Activity [16]: Active | Activity [17]: Active | Activity [18]: Active | Activity [19]: Dose-Dependent Effect | Activity [20]: Toxic | Activity [21]: 0.52 g | Activity [22]: 0.48 g | Activity [23]: Active | Activity [24]: Active | Activity [25]: Active | Activity [26]: Active | Activity [27]: Active | Activity [28]: Active | Activity [29]: Active | Activity [30]: Active | Activity [31]: Active | Activity [32]: Active | Activity [33]: Non-Toxic | Ratio [34]: 0.56 | Activity [35]: Active | Activity [36]: Active | Activity [37]: Active

Cc1ccc(COC(=O)Oc2ccc(N(C)N=O)cc2)c([N+](=O)[O-])c1
Activity [1]: <2%

CN(N=O)c1ccc(OC(=O)OCc2ccc([N+](=O)[O-])cc2)cc1
Stability [38]: 0.41% | Activity [1]: <2% | Activity [2]: 24.38% | Activity [3]: Active | Activity [5]: Active | Activity [10]: Non-Toxic | Activity [11]: Active | Activity [39]: Dose-Dependent Effect | Activity [40]: Active | Activity [12]: 37.5 nmol | Activity [13]: Non-Toxic | Activity [14]: Active | Activity [15]: Active | Activity [41]: inactive | Activity [16]: Active | Activity [42]: Active | Activity [43]: inactive | Activity [44]: Non-Toxic | Activity [20]: Toxic | Activity [21]: 0.57 g | Activity [22]: 0.48 g | Activity [23]: Active | Activity [24]: Active | Activity [26]: Active | Activity [27]: Active | Activity [28]: inactive

CN(N=O)c1ccc(OC(=O)OCc2ccc(Br)cc2[N+](=O)[O-])cc1
Activity [1]: <2%

CN(N=O)c1ccc(OC(=O)OCc2ccc(Cl)cc2[N+](=O)[O-])cc1
Activity [1]: <2%

Cc1ccc([N+](=O)[O-])c(COC(=O)Oc2ccc(N(C)N=O)cc2)c1
Activity [1]: <2%

O=[N+]([O-])O[C@H]1CO[C@H]2[C@@H]1OC[C@H]2O[N+](=O)[O-] [ISOSORBIDE DINITRATE]
Activity [1]: 36.89% | Activity [2]: 27.41% | Activity [45]: Dose-Dependent Effect | Activity [6]: Active | Activity [9]: ~30% | Activity [10]: Non-Toxic | Activity [11]: Active | Activity [12]: 28.7 nmol | Activity [13]: Non-Toxic | Activity [14]: Active | Activity [46]: 0.51 g | Activity [47]: 54% | Activity [48]: Active | Activity [49]: inactive | Ratio [50]: 0.59

CN(N=O)c1ccc(OC(=O)OCc2cc(Cl)ccc2[N+](=O)[O-])cc1
Activity [1]: <2%

CN(N=O)c1ccc(OC(=O)OCc2ccccc2[N+](=O)[O-])cc1
Activity [1]: <2% | Activity [2]: >20%

CN(N=O)c1ccc(OC(=O)OCc2ccc([N+](=O)[O-])cc2Cl)cc1
Activity [1]: <2% | Activity [2]: >20%
